Series [1] has as its system Plasmodium falciparum. As to the kind of experiment: microbe, parasite or virus in culture. The settings on record: 72 h.
Description: Antimalarial activity against chloroquine resistant Plasmodium falciparum clinical isolate GB4 assessed as inhibition of growth incubated for 72 hrs by SYBR green I based assay
Series [2] concerns the target T1, NAD-dependent protein deacetylase sirtuin-2 (Homo sapiens, UniProt Q8IXJ6).
T1 sequence (Q8IXJ6 whole entry): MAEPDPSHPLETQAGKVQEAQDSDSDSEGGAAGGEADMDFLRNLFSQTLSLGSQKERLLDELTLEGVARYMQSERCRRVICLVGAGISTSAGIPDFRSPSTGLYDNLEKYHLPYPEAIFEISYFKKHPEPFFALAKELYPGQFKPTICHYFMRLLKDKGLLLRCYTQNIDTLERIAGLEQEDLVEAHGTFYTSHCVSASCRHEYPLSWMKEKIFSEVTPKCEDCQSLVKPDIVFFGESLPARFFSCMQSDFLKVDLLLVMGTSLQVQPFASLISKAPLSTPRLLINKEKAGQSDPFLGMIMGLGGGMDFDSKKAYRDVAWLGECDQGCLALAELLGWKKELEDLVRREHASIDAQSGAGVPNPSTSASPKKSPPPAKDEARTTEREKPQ
The series is described as follows: Inhibition of recombinant human SIRT2 using Ac-peptide as substrate preincubated for 15 mins followed by substrate addition for 240 mins and measured after 120 mins of trypsin addition.

Series [3] deals with Plasmodium yoelii. As to the kind of experiment: Antimalarial activity against erythrocytic stage of Plasmodium yoelli infected in female mouse model assessed as reduction in parasitemia at 60 mg/kg, ip pre-infected with parasite followed by once daily compound administration from day 3 to 6 by microscopic analysis. It counts as functional, organism-based. The settings on record: time 4.0 day.

The test system of series [4] is Plasmodium yoelii. As to the kind of experiment: Antimalarial activity against erythrocytic stage of Plasmodium yoelli infected in female mouse model assessed as reduction in parasitemia at 30 mg/kg, ip pre-infected with parasite followed by twice daily compound administration from day 3 to 6 by microscopic analysis. The class given is functional, organism-based. The settings on record: time 4.0 day.

Series [5] is described as follows: Toxicity in female mouse model at 150 mg/kg, ip administered as single dose. It counts as organism-based. The settings on record: in vivo.
In series [6] the test system is Plasmodium falciparum. The series is described as follows: microbe, parasite or virus in culture. The settings on record: 3D7, 72 h.
Description: Antimalarial activity against erythrocytic stage of Plasmodium falciparum 3D7 assessed as inhibition of growth incubated for 72 hrs by SYBR green I based assay
The nature of series [7]: Toxicity in female mouse model infected with erythrocytic stage of Plasmodium yoelli assessed as animal death at 30 mg/kg, ip pre-infected with parasite followed by […] compound administration from day 3 to 6. The class given is organism-based. The settings on record: in vivo, 96 h, time 4 day.
Series [8] can be described thus: Metabolic stability in mouse liver microsomes assessed as half-life measured upto 45 mins in presence of NADPH by LC-MS/MS analysis. It counts as ADME, Microsome.
A short description of series [9]: Tmax in female Balb/c mouse at 5 mg/kg, ip measured after 24 hrs by LC-MS/MS analysis. It counts as ADME, organism-based. The settings on record: in vivo.
For series [10], the system named is Plasmodium falciparum. As to the kind of experiment: Inhibition of asynchronous ring stage Plasmodium falciparum 3D7 HDAC assessed as increase in histone H3 acetylation level at 20 times of IC50 concentration incubated for 2 hrs by Western blot analysis.
Series [11] has as its system Plasmodium falciparum. As to the kind of experiment: microbe, parasite or virus in culture. The settings on record: 72 h. This is another data set of the same source.
Description: Antimalarial activity against quinine and chloroquine resistant Plasmodium falciparum clinical isolate C2A assessed as inhibition of growth incubated for 72 hrs by SYBR green I based assay
Series [12] is described as follows: Cytotoxicity against HEK293T cells assessed as inhibition of cell growth incubated for 72 hrs by CCK8 assay. The class given is toxicity, cell-based, HEK-293T. The settings on record: human.
The target in the next series is T2, Histone deacetylase 8 (Homo sapiens, UniProt Q9BY41).
T2 sequence (Q9BY41 whole entry): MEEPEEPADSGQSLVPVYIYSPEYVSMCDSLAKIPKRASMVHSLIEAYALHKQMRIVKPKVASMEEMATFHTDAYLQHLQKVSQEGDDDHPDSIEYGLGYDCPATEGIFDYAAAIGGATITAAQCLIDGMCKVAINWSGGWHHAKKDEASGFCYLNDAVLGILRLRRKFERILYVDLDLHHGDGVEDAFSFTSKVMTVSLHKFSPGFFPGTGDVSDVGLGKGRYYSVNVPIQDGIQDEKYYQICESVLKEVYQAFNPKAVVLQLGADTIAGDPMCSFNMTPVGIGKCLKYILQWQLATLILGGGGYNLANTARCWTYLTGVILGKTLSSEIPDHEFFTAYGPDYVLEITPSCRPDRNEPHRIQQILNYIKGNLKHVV
As to the kind of experiment: Inhibition of recombinant human HDAC8 using Ac-peptide as substrate preincubated for 15 mins followed by substrate addition for 240 mins and measured after 120 mins of trypsin addition.

Series [13] in a line: Toxicity in female mouse model infected with erythrocytic stage of Plasmodium yoelli assessed as animal death at 30 mg/kg, ip pre-infected with parasite followed by twice daily compound administration from day 3 to 6. The class given is organism-based. The settings on record: in vivo, 96 h, time 4 day.
Series [14] in a line: Metabolic stability in mouse liver microsomes assessed as clearance measured upto 45 mins in presence of NADPH by LC-MS/MS analysis. The class given is ADME, Microsome. The settings on record: read-out: CLH.
The target of series [15] is T3, Protein deacetylase HDAC6 (Homo sapiens, UniProt Q9UBN7).
T3 sequence (Q9UBN7 whole entry): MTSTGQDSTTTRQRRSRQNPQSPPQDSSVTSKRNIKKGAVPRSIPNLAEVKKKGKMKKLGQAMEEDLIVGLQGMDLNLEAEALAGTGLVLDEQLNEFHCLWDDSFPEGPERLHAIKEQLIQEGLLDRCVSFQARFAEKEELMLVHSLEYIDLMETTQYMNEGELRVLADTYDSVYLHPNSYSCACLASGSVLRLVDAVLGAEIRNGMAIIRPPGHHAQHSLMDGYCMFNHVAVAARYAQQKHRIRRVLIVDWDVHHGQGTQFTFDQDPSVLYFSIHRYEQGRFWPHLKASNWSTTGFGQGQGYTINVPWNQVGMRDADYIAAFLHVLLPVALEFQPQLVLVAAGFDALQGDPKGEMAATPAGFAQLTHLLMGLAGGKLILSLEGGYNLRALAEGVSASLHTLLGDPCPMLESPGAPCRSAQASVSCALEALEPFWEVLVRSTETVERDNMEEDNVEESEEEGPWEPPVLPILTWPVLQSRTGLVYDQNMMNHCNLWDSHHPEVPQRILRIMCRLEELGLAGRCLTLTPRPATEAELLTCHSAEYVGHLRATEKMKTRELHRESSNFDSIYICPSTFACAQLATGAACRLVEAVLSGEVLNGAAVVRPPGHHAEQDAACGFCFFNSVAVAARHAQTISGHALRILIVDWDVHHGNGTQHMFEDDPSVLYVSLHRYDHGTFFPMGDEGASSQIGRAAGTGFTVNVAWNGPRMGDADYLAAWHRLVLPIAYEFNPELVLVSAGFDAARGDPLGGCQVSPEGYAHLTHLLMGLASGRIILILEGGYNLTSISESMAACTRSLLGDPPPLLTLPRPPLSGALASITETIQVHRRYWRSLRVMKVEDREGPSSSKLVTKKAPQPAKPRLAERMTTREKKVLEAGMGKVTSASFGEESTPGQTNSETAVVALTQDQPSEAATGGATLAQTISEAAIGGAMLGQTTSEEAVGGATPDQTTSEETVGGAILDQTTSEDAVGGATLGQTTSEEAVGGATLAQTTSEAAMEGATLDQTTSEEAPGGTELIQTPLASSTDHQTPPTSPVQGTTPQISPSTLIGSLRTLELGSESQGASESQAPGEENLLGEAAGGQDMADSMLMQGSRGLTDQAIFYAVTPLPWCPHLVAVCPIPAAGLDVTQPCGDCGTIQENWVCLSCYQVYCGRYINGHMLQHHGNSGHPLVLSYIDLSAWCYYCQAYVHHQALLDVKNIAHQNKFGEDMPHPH
The series is described as follows: Inhibition of recombinant human HDAC6 using Ac-peptide as substrate preincubated for 15 mins followed by substrate addition and measured after 60 mins.

A short description of series [16]: Cytotoxicity against human HepG2 cells assessed as inhibition of cell growth incubated for 72 hrs by CCK8 assay. The class given is toxicity, cell-based.
Series [17] concerns Plasmodium falciparum. As to the kind of experiment: Antimalarial activity against sulfadoxine-pyrimethamine and mefloquine resistant Plasmodium falciparum clinical isolate CP286 assessed as inhibition of growth incubated for 72 hrs by SYBR green I based assay. It counts as functional, organism-based.
The next series deals with Histone deacetylase 2 (Homo sapiens, UniProt Q92769). The series is described as follows: Inhibition of recombinant human HDAC2 using Ac-peptide as substrate preincubated for 15 mins followed by substrate addition and measured after 60 mins.
Chain of Histone deacetylase 2 (Q92769 whole entry): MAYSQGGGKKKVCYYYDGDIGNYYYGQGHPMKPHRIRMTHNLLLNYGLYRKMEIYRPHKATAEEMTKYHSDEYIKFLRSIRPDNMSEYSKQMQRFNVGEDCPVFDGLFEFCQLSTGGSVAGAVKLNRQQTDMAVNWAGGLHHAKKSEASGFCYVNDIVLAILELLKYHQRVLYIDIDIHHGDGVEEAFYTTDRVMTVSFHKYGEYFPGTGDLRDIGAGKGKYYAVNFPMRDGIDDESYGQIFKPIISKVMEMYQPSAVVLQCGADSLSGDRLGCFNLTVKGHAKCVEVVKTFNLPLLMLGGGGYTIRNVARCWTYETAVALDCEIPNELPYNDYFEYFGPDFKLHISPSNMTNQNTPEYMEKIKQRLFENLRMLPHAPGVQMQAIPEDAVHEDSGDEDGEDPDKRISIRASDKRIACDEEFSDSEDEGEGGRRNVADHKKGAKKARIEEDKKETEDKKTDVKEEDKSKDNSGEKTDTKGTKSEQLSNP
The next series addresses Histone deacetylase 1 (Homo sapiens, UniProt Q13547). As to the kind of experiment: Inhibition of recombinant human HDAC1 using Ac-peptide as substrate preincubated for 15 mins followed by substrate addition and measured after 60 mins.
For series [18], the system named is Plasmodium falciparum. As to the kind of experiment: microbe, parasite or virus in culture. The settings on record: Dd2, 72 h.
Description: Antimalarial activity against erythrocytic stage of chloroquine-resistant Plasmodium falciparum Dd2 assessed as inhibition of growth incubated for 72 hrs by SYBR green I based assay
Series [19] can be described thus: Selectivity index, ratio of IC50 for HEK293T cells to IC50 for erythrocytic stage of Plasmodium falciparum 3D7. It counts as toxicity, cell-based. The settings on record: human, read-out: Ratio IC50.
In a further series the target is Histone deacetylase 3 (Homo sapiens, UniProt O15379). As to the kind of experiment: Inhibition of recombinant human HDAC3 using Ac-peptide as substrate preincubated for 15 mins followed by substrate addition and measured after 60 mins.
Chain of Histone deacetylase 3 (O15379 whole entry): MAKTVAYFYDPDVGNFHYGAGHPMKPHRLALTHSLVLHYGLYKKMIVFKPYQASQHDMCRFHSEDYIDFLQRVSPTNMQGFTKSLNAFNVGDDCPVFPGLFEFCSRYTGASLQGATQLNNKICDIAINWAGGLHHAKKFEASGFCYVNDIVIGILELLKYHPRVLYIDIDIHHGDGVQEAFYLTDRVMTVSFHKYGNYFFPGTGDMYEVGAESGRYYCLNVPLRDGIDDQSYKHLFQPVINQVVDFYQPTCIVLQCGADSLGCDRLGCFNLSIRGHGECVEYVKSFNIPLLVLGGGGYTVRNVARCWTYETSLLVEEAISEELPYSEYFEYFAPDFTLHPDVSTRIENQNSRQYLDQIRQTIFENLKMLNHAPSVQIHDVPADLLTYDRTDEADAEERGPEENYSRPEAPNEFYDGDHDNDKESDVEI
Series [20] is described as follows: Resistance index, ratio of IC50 for quinine and chloroquine resistant Plasmodium falciparum clinical isolate C2A to IC50 for erythrocytic stage of Plasmodium falciparum 3D7. It counts as functional.
Series [21] can be described thus: Resistance index, ratio of IC50 for chloroquine resistant Plasmodium falciparum clinical isolate GB4 to IC50 for erythrocytic stage of Plasmodium falciparum 3D7. The class given is functional.
Series [22] is described as follows: Resistance index, ratio of IC50 for sulfadoxine-pyrimethamine and mefloquine resistant Plasmodium falciparum clinical isolate CP286 to IC50 for erythrocytic stage of Plasmodium falciparum 3D7. The class given is functional.

Calls of active or inactive are those of the source. The calls are words filed in the database; no cut-off is given here. A value given as a limit tells only on which side of the number the result lay.

Chain of Histone deacetylase 1 (Q13547 whole entry): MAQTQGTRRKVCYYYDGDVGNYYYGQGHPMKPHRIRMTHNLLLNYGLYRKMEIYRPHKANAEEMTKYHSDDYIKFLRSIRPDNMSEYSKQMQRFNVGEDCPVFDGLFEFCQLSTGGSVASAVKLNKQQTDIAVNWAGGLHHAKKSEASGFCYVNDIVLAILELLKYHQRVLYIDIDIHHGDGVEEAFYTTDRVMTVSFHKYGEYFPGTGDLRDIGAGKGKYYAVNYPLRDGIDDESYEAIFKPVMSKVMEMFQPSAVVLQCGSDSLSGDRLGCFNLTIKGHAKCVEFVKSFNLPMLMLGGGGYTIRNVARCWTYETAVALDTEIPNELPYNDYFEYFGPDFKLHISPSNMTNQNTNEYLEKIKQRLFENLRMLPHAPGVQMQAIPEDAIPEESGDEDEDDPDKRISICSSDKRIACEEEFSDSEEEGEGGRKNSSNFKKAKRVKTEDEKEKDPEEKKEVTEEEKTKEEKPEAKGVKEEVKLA

Regarding `Cn1cc(CNCC2CCN(c3ncc(C(=O)NO)cn3)CC2)c2ccccc21` [QUISINOSTAT], the IC50 was 1.7 nM in the series with Plasmodium falciparum [1], greater than 10000 nM in series [2] and 5.2 nM in the series with Plasmodium falciparum [6]. Besides, the Activity entry is “Active; Significant Recurrence Of Parasitemia Observed” with Plasmodium yoelii [3], “Not active; Mild Recurrence Of Parasitemia Post-Treatment Cessation Observed” in the series with Plasmodium yoelii [4], “Toxic” in [5] and “Toxic” in [7]. Moreover, the half-life in series [8] turned out to be 13.3 min. Further, the Tmax in series [9] is 4.98 min. Moreover, the inhibition result in the series on Plasmodium falciparum [10] was “Active”.
Take `COc1ccc2c(CN[C@H]3CC[C@@H](Nc4ncc(C(=O)NO)cn4)CC3)cn(C)c2c1.Cl`: the IC50 with Plasmodium falciparum [11] is 22.7 nM; in the series on Plasmodium falciparum [1], 27.2 nM; in series [2], greater than 10000 nM; at Histone deacetylase 8, 30 nM; with Plasmodium falciparum [6], 2.7 nM; in series [15] it was 90 nM. The IC50 in the series on Plasmodium falciparum [17] was 38.7 nM; at Histone deacetylase 2, 14 nM; at Histone deacetylase 1 it was 9.1 nM; in the series with Plasmodium falciparum [18], 12.8 nM; on Histone deacetylase 3 it was 21 nM. The values for the IC50 at 72 h in [12] and in series [16] were greater than 10000 nM and 12800 nM, respectively. Also, the Activity result is recorded as “Active; Only Slight Recurrence Of Parasitemia Was Observed Upon Cessation Of Treatment” in the series on Plasmodium yoelii [4] and “Toxic” in series [13]. Also, in series [14], the CLint scaled was determined as 114 mL/min/kg. Besides, in series [8], the half-life turned out to be 48 min. Besides, the selectivity ratio in series [19] was greater than 867. Besides, in the series on Plasmodium falciparum [10], the inhibition entry was “Active”.
Turning to `C[C@H]1[C@@H](O)O[C@@H]2O[C@@]3(C)CC[C@H]4[C@H](C)CC[C@@H]1[C@@]24OO3` [ARTENIMOL], the Ratio IC50 in [20] stood at 1.4; in series [21] it was 1.2; in series [22], 2.1. The IC50 in the series on Plasmodium falciparum [11] turned out to be 3.7 nM; in the series with Plasmodium falciparum [1] it was 3.2 nM; in the series on Plasmodium falciparum [6], 2.7 nM; in the series on Plasmodium falciparum [17], 5.6 nM; in the series with Plasmodium falciparum [18], 2.68 nM.

The values are drawn from ChEMBL document CHEMBL6096636 (Bioorg Med Chem, 2024).
